Data taken from PubChem BioAssay (NCI).
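Step 1: Grow cells in 96-well plates. Step 2: Expose to compound for 48 hours at 5 concentrations. Step 3: Interpolate endpoints linearly; if unreached, use highest concentration. TGI marks complete inhibition of growth.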

Legend:
Experiment in all cases: inhibition of tumour cell growth, NCI panel, 48 h
786-0 renal = test system: 786-0 renal
A498 renal = test system: A498 renal
A549 NSCLC = test system: A549 NSCLC
ACHN renal = test system: ACHN renal
CCRF-CEM leukemia = test system: CCRF-CEM leukemia
COLO 205 colon = test system: COLO 205 colon
DMS 114 small cell lung = test system: DMS 114 small cell lung
DMS 273 small cell lung = test system: DMS 273 small cell lung
EKVX NSCLC = test system: EKVX NSCLC
HCC-2998 colon = test system: HCC-2998 colon
HCT-116 colon = test system: HCT-116 colon
HCT-15 colon = test system: HCT-15 colon
HL-60(TB) leukemia = test system: HL-60(TB) leukemia
HOP-62 NSCLC = test system: HOP-62 NSCLC
HT29 colon = test system: HT29 colon
IGROV1 ovarian = test system: IGROV1 ovarian
K-562 leukemia = test system: K-562 leukemia
KM12 colon = test system: KM12 colon
KM20L2 colon = test system: KM20L2 colon
LXFL 529 NSCLC = test system: LXFL 529 NSCLC
M14 melanoma = test system: M14 melanoma
M19-MEL melanoma = test system: M19-MEL melanoma
MALME-3M melanoma = test system: MALME-3M melanoma
MOLT-4 leukemia = test system: MOLT-4 leukemia
NCI-H226 lung = test system: NCI-H226 lung
NCI-H23 lung = test system: NCI-H23 lung
NCI-H460 lung = test system: NCI-H460 lung
NCI-H522 lung = test system: NCI-H522 lung
OVCAR-3 ovarian = test system: OVCAR-3 ovarian
OVCAR-4 ovarian = test system: OVCAR-4 ovarian
OVCAR-5 ovarian = test system: OVCAR-5 ovarian
OVCAR-8 ovarian = test system: OVCAR-8 ovarian
RPMI-8226 leukemia = test system: RPMI-8226 leukemia
RXF 393 renal = test system: RXF 393 renal
SF-268 CNS = test system: SF-268 CNS
SF-295 CNS = test system: SF-295 CNS
SF-539 CNS = test system: SF-539 CNS
SK-MEL-2 melanoma = test system: SK-MEL-2 melanoma
SK-MEL-28 melanoma = test system: SK-MEL-28 melanoma
SK-OV-3 ovarian = test system: SK-OV-3 ovarian
SN12C renal = test system: SN12C renal
SNB-19 CNS = test system: SNB-19 CNS
SNB-75 CNS = test system: SNB-75 CNS
SR leukemia = test system: SR leukemia
SW-620 colon = test system: SW-620 colon
TK-10 renal = test system: TK-10 renal
U251 CNS = test system: U251 CNS
UACC-257 melanoma = test system: UACC-257 melanoma
UACC-62 melanoma = test system: UACC-62 melanoma
UO-31 renal = test system: UO-31 renal
DLD-1 colon = test system: DLD-1 colon
LOX IMVI melanoma = test system: LOX IMVI melanoma
SNB-78 CNS = test system: SNB-78 CNS
HOP-92 NSCLC = test system: HOP-92 NSCLC

## O=C1C=C(Nc2ccc(Br)cc2)c2ccccc2C1=O
786-0 renal
  TGI: 28.3 µM
A498 renal
  TGI: 31 µM
A549 NSCLC
  TGI: 32.8 µM
ACHN renal
  TGI: 16.2 µM
CCRF-CEM leukemia
  TGI: 32.3 µM
COLO 205 colon
  TGI: 31 µM
DMS 114 small cell lung
  TGI: 18 µM
DMS 273 small cell lung
  TGI: 25.7 µM
EKVX NSCLC
  TGI: 32.5 µM
HCC-2998 colon
  TGI: 28.5 µM
HCT-116 colon
  TGI: 26.5 µM
HCT-15 colon
  TGI: 18.9 µM
HL-60(TB) leukemia
  TGI: 22.4 µM
HOP-62 NSCLC
  TGI: 30.7 µM
HT29 colon
  TGI: 34 µM
IGROV1 ovarian
  TGI: 33.2 µM
K-562 leukemia
  TGI: 34 µM
KM12 colon
  TGI: 29.6 µM
KM20L2 colon
  TGI: 39.3 µM
LXFL 529 NSCLC
  TGI: 25.4 µM
M14 melanoma
  TGI: 28.8 µM
M19-MEL melanoma
  TGI: 3.29 µM
MALME-3M melanoma
  TGI: 28.7 µM
MOLT-4 leukemia
  TGI: 30.5 µM
NCI-H226 lung
  TGI: 38.2 µM
NCI-H23 lung
  TGI: 15.3 µM
NCI-H460 lung
  TGI: 23.8 µM
NCI-H522 lung
  TGI: 25.5 µM
OVCAR-3 ovarian
  TGI: 19.7 µM
OVCAR-4 ovarian
  TGI: 6.13 µM
OVCAR-5 ovarian
  TGI: 35.3 µM
OVCAR-8 ovarian
  TGI: 29.3 µM
RPMI-8226 leukemia
  TGI: 24.9 µM
RXF 393 renal
  TGI: 30.6 µM
SF-268 CNS
  TGI: 27.6 µM
SF-295 CNS
  TGI: 29.8 µM
SF-539 CNS
  TGI: 30.3 µM
SK-MEL-2 melanoma
  TGI: 30.1 µM
SK-MEL-28 melanoma
  TGI: 31.3 µM
SK-OV-3 ovarian
  TGI: 31 µM
SN12C renal
  TGI: 29.6 µM
SNB-19 CNS
  TGI: 29.2 µM
SNB-75 CNS
  TGI: 23.3 µM
SR leukemia
  TGI: 16.5 µM
SW-620 colon
  TGI: 27.2 µM
TK-10 renal
  TGI: 33.8 µM
U251 CNS
  TGI: 16 µM
UACC-257 melanoma
  TGI: 26.5 µM
UACC-62 melanoma
  TGI: 15.3 µM
UO-31 renal
  TGI: 29.6 µM

## Cc1cnc(-c2ccccc2)o1
786-0 renal
  TGI: > 100 µM
CCRF-CEM leukemia
  TGI: > 100 µM
DLD-1 colon
  TGI: > 100 µM
DMS 273 small cell lung
  TGI: > 100 µM
HCC-2998 colon
  TGI: > 100 µM
HCT-116 colon
  TGI: > 100 µM
HL-60(TB) leukemia
  TGI: > 100 µM
HOP-62 NSCLC
  TGI: > 100 µM
K-562 leukemia
  TGI: > 100 µM
KM20L2 colon
  TGI: > 100 µM
LOX IMVI melanoma
  TGI: > 100 µM
LXFL 529 NSCLC
  TGI: > 100 µM
M14 melanoma
  TGI: > 100 µM
MOLT-4 leukemia
  TGI: > 100 µM
NCI-H226 lung
  TGI: > 100 µM
NCI-H23 lung
  TGI: > 100 µM
NCI-H460 lung
  TGI: > 100 µM
NCI-H522 lung
  TGI: > 100 µM
OVCAR-4 ovarian
  TGI: > 100 µM
RPMI-8226 leukemia
  TGI: > 100 µM
RXF 393 renal
  TGI: > 100 µM
SF-539 CNS
  TGI: > 100 µM
SK-MEL-28 melanoma
  TGI: > 100 µM
SNB-19 CNS
  TGI: > 100 µM
SNB-75 CNS
  TGI: > 100 µM
SNB-78 CNS
  TGI: > 100 µM
U251 CNS
  TGI: > 100 µM

## S=c1[nH]nc(-c2ccccc2)n1/N=C\c1ccc(-c2ccc(Cl)cc2)o1
786-0 renal
  TGI: > 100 µM
A549 NSCLC
  TGI: > 100 µM
ACHN renal
  TGI: > 100 µM
COLO 205 colon
  TGI: > 100 µM
DLD-1 colon
  TGI: > 100 µM
HCT-116 colon
  TGI: > 100 µM
HL-60(TB) leukemia
  TGI: > 100 µM
HOP-62 NSCLC
  TGI: > 100 µM
HOP-92 NSCLC
  TGI: > 100 µM
HT29 colon
  TGI: > 100 µM
IGROV1 ovarian
  TGI: > 100 µM
K-562 leukemia
  TGI: > 100 µM
KM12 colon
  TGI: > 100 µM
KM20L2 colon
  TGI: > 100 µM
LOX IMVI melanoma
  TGI: > 100 µM
LXFL 529 NSCLC
  TGI: > 100 µM
M14 melanoma
  TGI: > 100 µM
M19-MEL melanoma
  TGI: > 100 µM
MOLT-4 leukemia
  TGI: > 100 µM
NCI-H226 lung
  TGI: > 100 µM
NCI-H23 lung
  TGI: > 100 µM
NCI-H460 lung
  TGI: > 100 µM
NCI-H522 lung
  TGI: > 100 µM
OVCAR-3 ovarian
  TGI: > 100 µM
OVCAR-4 ovarian
  TGI: > 100 µM
OVCAR-5 ovarian
  TGI: > 100 µM
OVCAR-8 ovarian
  TGI: > 100 µM
RPMI-8226 leukemia
  TGI: > 100 µM
SF-268 CNS
  TGI: > 100 µM
SF-295 CNS
  TGI: > 100 µM
SF-539 CNS
  TGI: > 100 µM
SK-MEL-28 melanoma
  TGI: > 100 µM
SK-OV-3 ovarian
  TGI: > 100 µM
SNB-19 CNS
  TGI: > 100 µM
SNB-75 CNS
  TGI: > 100 µM
SNB-78 CNS
  TGI: > 100 µM
SR leukemia
  TGI: > 100 µM
SW-620 colon
  TGI: > 100 µM
TK-10 renal
  TGI: > 100 µM
U251 CNS
  TGI: > 100 µM
UACC-257 melanoma
  TGI: > 100 µM
UACC-62 melanoma
  TGI: > 100 µM
UO-31 renal
  TGI: > 100 µM
